What all share (assay): Western blot of protein biomarkers
Assay type in all cases: cell-based
(In general: Immunoblotting shows a protein as a band on a membrane.)

One assay concerns BICR-16 cells. The conditions noted are these: IFN-γ (100 ng/mL)+TNF-α (10 ng/mL), 24 hours. Here is the method: (§1) MTA and EM effects on protein biomarker expression were measured by western blotting. For the assay cell lines (Ca9-22, PE/CA-PJ15, HTB-38, HPAF-II, CAL27, BICR-16, A-253, Calu-6, PC-9, H1838, RPMI-7951 and A7) were cultured and treated with doses of MTAs alone, EMs alone and in combination and then lysed for protein analysis. This method can readily be conducted under adherent or suspension conditions, manually or on automated instruments, such as SnapPath. A total of 0.3×10^6 cells per well were seeded in 6 well plates with 10% FBS-containing media and incubated for 24 hours. Cells were then treated with MTA and/or EM concentrations for 24 hours. For total protein extraction, briefly, each sample media was collected, and wells were washed with HMS, and the wash was combined with its respective media collection. Cells were then detached using Accutase solution and again collected in its respective sample media and another HMS well wash and collection was performed. All cell solutions were centrifuged, washed with ice-cold PBS, and centrifuged again. Cell pellets were lysed in 250 μL of ice-cold 1× lysis buffer with protease and phosphatase inhibitor cocktails and incubated for 10 minutes on ice. Lysates were clarified with a centrifugation (14,000 rpm) for 10 minutes at 4° C. Cell lysates were quantified using Bio-Rad DC Protein Assay (Bio-Rad Cat. #5000116).
(§2) For all western blots, an equal amount of protein (3-5 μg) was loaded into SDS-polyacrylamide gels (Mini-Protean TGX Precast Gel; Bio-Rad, e.g. 7.5%, Cat. #4561024; 10%, Cat. #4561035; 12%, Cat. #4561045; or 4-15%, Cat. #4561085). Proteins were separated at 215V for at least 30 minutes in 1× Tris/Glycine/SDS buffer (Bio-Rad Cat. #1610772) and transferred to PVDF membranes using a Trans-Blot Turbo (Bio-Rad Cat. #1704155) for 7 minutes in transfer buffer (Trans-Blot Turbo Transfer Kit, Bio-Rad Cat. #1704273). Blots were blocked at room temperature for 1 hour with 5% non-fat dry milk in tris-buffered saline with Tween 20 (TBST; 15 mM Tris-HCl, pH 7.5, 200mMNaCl and 0.1% Tween 20). Membranes were incubated with primary antibodies at 4° C. overnight and at room temperature for 1 hour the next day; all primary antibodies were diluted following manufacturer's specifications in TBST with either 5% BSA or 5% non-fat dry milk. Membranes were washed in TBST for 5 minutes, three times, and incubated with HRP-conjugated secondary antibodies diluted 1:5000 in TBST with 5% non-fat dry milk at room temperature for 1 hour (anti-rabbit IgG, Bio-Rad Cat. #1706515; or anti-mouse IgG, Bio-Rad Cat. #1706516). Membranes were then washed in TBST for 10 minutes, three times, and target proteins were identified using Clarity Western ECL Substrate (Bio-Rad Cat. #1705061) on autoradiography film (GenHunter Cat. #B581, Nashville, Tenn., USA). Other assay types, such as Luminex multiplexed immunoassays, ICC, IHC, flow cytometry, etc. can be used readily.

The next assay concerns HTB-38 cells. Here is the method: as §1, §2
For the next assay, the system named is PC-9 cells. The conditions noted are these: trametinib (100 nM)+TNF-α (10 ng/mL), 24 hours. The procedure:
as §1, §2

In the next assay the test system is Ca9-22 cells. To be noted: compared to either alone. Here is the method: as §1, §2
Another assay concerns PE/CA-PJ15 cells. To be noted: osimertinib (100 nM)+IFN-α (200 ng/mL). Here is the method:
as §1, §2

Setting [1] is: compared to either therapy alone.
Where [2] appears, read: osimertinib (1000 nM)+IFN-α (200 ng/mL).

As to tumor necrosis factor-alpha [EM2], the PARP cleavage result in the assay with BICR-16 cells (compared to MTA and EM alone) is reported as “very strong PARP cleavage”; in the assay with HTB-38 cells (IFN-γ (100 ng/mL)+TNF-α (10 ng/mL), 24 hours, compared to MTA and EM alone), “very strong PARP cleavage”; in the assay on PC-9 cells (compared to MTA and EM alone), “very strong PARP cleavage”. In addition, the “LC3II over LC3I expression” value with BICR-16 cells (compared to either alone) is recorded as “marked increase in LC3II over LC3I expression”. The “Ki67 degradation and/or fragmentation pattern” value with BICR-16 cells (setting [1]) is “marked increase in the distinct degradation and/or fragmentation pattern of Ki67”; in the assay with HTB-38 cells (IFN-γ (100 ng/mL)+TNF-α (10 ng/mL), 24 hours, compared to either therapy alone), “marked increase in the distinct degradation and/or fragmentation pattern of Ki67”; in the assay on PC-9 cells (setting [1]), “marked increase in the distinct degradation and/or fragmentation pattern of Ki67”. For the same molecule, in the assay with HTB-38 cells (IFN-γ (100 ng/mL)+TNF-α), the LC3II expression result is “increased expression”. For the same molecule, in the assay with HTB-38 cells (IFN-γ (100 ng/mL)+TNF-α), the p62 expression result is listed as “increased expression”. Also, in the assay with PC-9 cells (compared to either MTA or EM alone), the “p-AKT (Ser473) expression” value is reported as “strong reduction in p-AKT (Ser473) expression”.

B1: interferon-alpha-1 (protein, UniProt P01562 24-189, looked up)
Interferon alpha-1/13: CDLPETHSLDNRRTLMLLAQMSRISPSSCLMDRHDFGFPQEEFDGNQFQKAPAISVLHELIQQIFNLFTTKDSSAAWDEDLLDKFCTELYQQLNDLEACVMQEERVGETPLMNADSILAVKKYFRRITLYLTEKKYSPCAWEVVRAEIMRSLSLSTNLQERLRRKE
notes: enhancer molecule, cytokine purchased from Sigma
As to B1, the “LC3II over LC3I expression” value is listed as “marked increase in LC3II over LC3I expression” in the assay with Ca9-22 cells (GSK-458 (10 nM)+IFN-α (200 ng/mL), 24 hours) and “marked increase in LC3II over LC3I expression” in the assay on PE/CA-PJ15 cells (24 hours, compared to either alone). Also, the LC3II expression entry in the assay on Ca9-22 cells (setting [2]) is “LC3II upregulation”. Moreover, the p62 expression result is “reduction in p62” in the assay on Ca9-22 cells (setting [2]) and “increased expression” in the assay with PE/CA-PJ15 cells.

These data come from patent US20220339257A1, “METHODS TO INCREASE THE SENSITIVITY AND REVERSING THE RESISTANCE TO DRUGS” (Biomarker Strategies, LLC, priority 2019, published 2022).
